For one test, the system named is A549. Nature of the test: Cytotoxicity against human A549 cells assessed as reduction in cell viability by SRB assay. In kind it is functional, cell-based. (Sulforhodamine B stains cellular protein and so reports cell mass.)
Test [1] is described as follows: Cytotoxicity against rat ASK cells assessed as reduction in cell viability by SRB assay. In kind it is functional, cell-based.
A short description of test [2]: Potency index, ratio of andrographolide IC50 to test compound IC50 for cytotoxicity against human K213 cells. In kind it is functional.
Test [3] relates to KB. Nature of the test: Potency index, ratio of andrographolide IC50 to test compound IC50 for cytotoxicity against human KB cells. In kind it is functional.
The nature of test [4]: Potency index, ratio of andrographolide IC50 to test compound IC50 for cytotoxicity against human K055 cells. In kind it is functional.
Test [5] can be described thus: Cytotoxicity against human K213 cells assessed as reduction in cell viability by SRB assay. In kind it is functional, cell-based.
A short description of test [6]: Cytotoxicity against human K055 cells assessed as reduction in cell viability by SRB assay. In kind it is functional, cell-based.
The test system of test [7] is MCF7. Nature of the test: Cytotoxicity against human MCF7 cells assessed as reduction in cell viability by SRB assay. In kind it is functional, cell-based.
The subject of test [8] is KB. Nature of the test: Cytotoxicity against human KB cells assessed as reduction in cell viability by SRB assay. In kind it is functional, cell-based.
In the next test the test system is HT-29. Nature of the test: Cytotoxicity against human HT-29 cells assessed as reduction in cell viability by SRB assay. In kind it is functional, cell-based.
Test [9] in a line: Cytotoxicity against human P388 cells assessed as reduction in cell viability by SRB assay. In kind it is functional, cell-based.
Test [10] in a line: Potency index, ratio of andrographolide IC50 to test compound IC50 for cytotoxicity against […] cells. In kind it is functional.
For test [11], the system named is MCF7. Put plainly: Potency index, ratio of andrographolide IC50 to test compound IC50 for cytotoxicity against human MCF7 cells. In kind it is functional.

Each structure is given as a SMILES string.

What is called IC50 is the concentration at which inhibition is half-maximal. As for `C=C1[C@@H](OC(C)=O)C[C@@H]2[C@](C)(CO[Si](C)(C)C(C)(C)C)[C@H](OC(C)=O)CC[C@@]2(C)[C@@H]1C/C=C1/C(=O)OC[C@H]1OC(C)=O`, the IC50 with A549 was determined as 4.64 µM; in [1] it was 4.11 µM; in [5] it was 4.81 µM; in test [6] it was 4.43 µM; in the test with MCF7 [7] it was 4.54 µM; in the test with KB [8] it was 5.02 µM. Further, the IC50 in the test with HT-29 came out at 4.94 µM; in test [9] it was 0.43 µM. In addition, the “Ratio IC50” value (in [2]; with KB [3]; in test [4]) was 8 throughout.
As for `C=C1[C@@H](OC(C)=O)C[C@@H]2[C@](C)(CO[Si](C)(C)C(C)(C)C)[C@H](OC(C)=O)CC[C@@]2(C)[C@@H]1C[C@@H](Nc1ccccc1)C1=CCOC1=O`, the IC50 in the test on A549 was 4.5 µM; in test [1], 4.96 µM; in test [5] it was 5.7 µM; in [6], 4.43 µM; in the test on MCF7 [7], 4.84 µM; with KB [8], 5.71 µM. Also, the IC50 is 4.05 µM in the test with HT-29 and 4.4 µM in test [9]. In addition, the “Ratio IC50” value in test [10] turned out to be 9.
`C=C1[C@@H](OC(C)=O)C[C@@H]2[C@](C)(CO[Si](C)(C)C(C)(C)C)[C@H](OC(C)=O)CC[C@@]2(C)[C@@H]1C[C@@H](Nc1cccc(F)c1)C1=CCOC1=O`: the concentration for half-maximal inhibition (IC50) with A549 is 4.06 µM; in test [1], 3.7 µM; in test [5] it was 5.28 µM; in [6], 5.41 µM; in the test with MCF7 [7] it was 3.82 µM; in the test with KB [8], 4.56 µM. Further, the IC50 was found to be 4.52 µM in the test with HT-29 and 2.81 µM in test [9]. For the same compound, in the test on MCF7 [11], the “Ratio IC50” value is on record as 7.
